Measured values published in the NIST ThermoML archive (doi:10.1016/j.jct.2007.08.002).
Values joined by “and” are separate entries in the source; they are usually repeats but may differ in a detail not shown here. Equal values may be shown once.

Assay: molar heat capacity at saturation pressure

NC12CC3CC(CC(C3)C1)C2 [tricyclo(3.3.1.1:3,7)decan-1-amine]
Conditions	molar heat capacity
196.06 K, Crystal 3, Small (less than 1 g) adiabatic calorimetry	135.44 J/K/mol
197.25 K, Crystal 3, Small (less than 1 g) adiabatic calorimetry	136.86 J/K/mol
197.97 K, Crystal 3, Small (less than 1 g) adiabatic calorimetry	137.6 J/K/mol
199.25 K, Crystal 3, Small (less than 1 g) adiabatic calorimetry	139.1 J/K/mol
199.88 K, Crystal 3, Small (less than 1 g) adiabatic calorimetry	139.77 J/K/mol
200.91 K, Crystal 3, Small (less than 1 g) adiabatic calorimetry	140.93 J/K/mol
201.79 K, Crystal 3, Small (less than 1 g) adiabatic calorimetry	142.09 J/K/mol
202.24 K, Crystal 3, Small (less than 1 g) adiabatic calorimetry	142.51 J/K/mol
203.56 K, Crystal 3, Small (less than 1 g) adiabatic calorimetry	144.09 J/K/mol
204.88 K, Crystal 3, Small (less than 1 g) adiabatic calorimetry	145.75 J/K/mol
206.19 K, Crystal 3, Small (less than 1 g) adiabatic calorimetry	147.58 J/K/mol
207.51 K, Crystal 3, Small (less than 1 g) adiabatic calorimetry	149.24 J/K/mol
207.53 K, Crystal 3, Small (less than 1 g) adiabatic calorimetry	149.33 J/K/mol
208.81 K, Crystal 3, Small (less than 1 g) adiabatic calorimetry	151.16 J/K/mol
209.45 K, Crystal 3, Small (less than 1 g) adiabatic calorimetry	152.07 J/K/mol
210.11 K, Crystal 3, Small (less than 1 g) adiabatic calorimetry	152.9 J/K/mol
211.36 K, Crystal 3, Small (less than 1 g) adiabatic calorimetry	154.9 J/K/mol
211.41 K, Crystal 3, Small (less than 1 g) adiabatic calorimetry	154.9 J/K/mol
212.7 K, Crystal 3, Small (less than 1 g) adiabatic calorimetry	156.73 J/K/mol
213.28 K, Crystal 3, Small (less than 1 g) adiabatic calorimetry	157.97 J/K/mol
213.99 K, Crystal 3, Small (less than 1 g) adiabatic calorimetry	158.89 J/K/mol
215.2 K, Crystal 3, Small (less than 1 g) adiabatic calorimetry	161.05 J/K/mol
215.27 K, Crystal 3, Small (less than 1 g) adiabatic calorimetry	161.05 J/K/mol
216.55 K, Crystal 3, Small (less than 1 g) adiabatic calorimetry	163.3 J/K/mol
217.12 K, Crystal 3, Small (less than 1 g) adiabatic calorimetry	164.54 J/K/mol
217.82 K, Crystal 3, Small (less than 1 g) adiabatic calorimetry	165.71 J/K/mol
219.04 K, Crystal 3, Small (less than 1 g) adiabatic calorimetry	168.28 J/K/mol
219.1 K, Crystal 3, Small (less than 1 g) adiabatic calorimetry	168.28 J/K/mol
220.36 K, Crystal 3, Small (less than 1 g) adiabatic calorimetry	170.95 J/K/mol
220.96 K, Crystal 3, Small (less than 1 g) adiabatic calorimetry	172.36 J/K/mol
221.61 K, Crystal 3, Small (less than 1 g) adiabatic calorimetry	173.61 J/K/mol
222.86 K, Crystal 3, Small (less than 1 g) adiabatic calorimetry	176.6 J/K/mol
222.88 K, Crystal 3, Small (less than 1 g) adiabatic calorimetry	176.77 J/K/mol
224.1 K, Crystal 3, Small (less than 1 g) adiabatic calorimetry	179.84 J/K/mol
224.8 K, Crystal 3, Small (less than 1 g) adiabatic calorimetry	181.75 J/K/mol
225.33 K, Crystal 3, Small (less than 1 g) adiabatic calorimetry	183.17 J/K/mol
226.55 K, Crystal 3, Small (less than 1 g) adiabatic calorimetry	186.91 J/K/mol
226.72 K, Crystal 3, Small (less than 1 g) adiabatic calorimetry	187.57 J/K/mol
227.76 K, Crystal 3, Small (less than 1 g) adiabatic calorimetry	190.82 J/K/mol
228.63 K, Crystal 3, Small (less than 1 g) adiabatic calorimetry	194.14 J/K/mol
228.97 K, Crystal 3, Small (less than 1 g) adiabatic calorimetry	195.22 J/K/mol
230.16 K, Crystal 3, Small (less than 1 g) adiabatic calorimetry	200.21 J/K/mol
230.54 K, Crystal 3, Small (less than 1 g) adiabatic calorimetry	202.12 J/K/mol
231.34 K, Crystal 3, Small (less than 1 g) adiabatic calorimetry	205.78 J/K/mol
232.45 K, Crystal 3, Small (less than 1 g) adiabatic calorimetry	211.52 J/K/mol
232.51 K, Crystal 3, Small (less than 1 g) adiabatic calorimetry	211.69 J/K/mol
233.67 K, Crystal 3, Small (less than 1 g) adiabatic calorimetry	218.01 J/K/mol
234.36 K, Crystal 3, Small (less than 1 g) adiabatic calorimetry	222.33 J/K/mol
234.81 K, Crystal 3, Small (less than 1 g) adiabatic calorimetry	225.16 J/K/mol
235.93 K, Crystal 3, Small (less than 1 g) adiabatic calorimetry	233.22 J/K/mol
236.25 K, Crystal 3, Small (less than 1 g) adiabatic calorimetry	235.72 J/K/mol
237.04 K, Crystal 3, Small (less than 1 g) adiabatic calorimetry	242.28 J/K/mol
238.14 K, Crystal 3, Small (less than 1 g) adiabatic calorimetry	251.85 J/K/mol and 251.6 J/K/mol
239.22 K, Crystal 3, Small (less than 1 g) adiabatic calorimetry	261.49 J/K/mol
240.04 K, Crystal 3, Small (less than 1 g) adiabatic calorimetry	267.14 J/K/mol
240.28 K, Crystal 3, Small (less than 1 g) adiabatic calorimetry	268.64 J/K/mol
241.32 K, Crystal 3, Small (less than 1 g) adiabatic calorimetry	272.38 J/K/mol
241.94 K, Crystal 2	272.22 J/K/mol
242.37 K, Crystal 2	270.55 J/K/mol
243.42 K, Crystal 2	261.16 J/K/mol
243.89 K, Crystal 2	258.16 J/K/mol
244.49 K, Crystal 2	249.93 J/K/mol
245.89 K, Crystal 2	240.12 J/K/mol
247.88 K, Crystal 2	229.23 J/K/mol
249.84 K, Crystal 2	225.07 J/K/mol
251.78 K, Crystal 2	223.16 J/K/mol
253.73 K, Crystal 2	223.33 J/K/mol
255.66 K, Crystal 2	225.49 J/K/mol
257.59 K, Crystal 2	226.9 J/K/mol
259.52 K, Crystal 2	229.98 J/K/mol
261.45 K, Crystal 2	233.3 J/K/mol
263.38 K, Crystal 2	237.13 J/K/mol
265.31 K, Crystal 2	241.62 J/K/mol
267.23 K, Crystal 2	247.19 J/K/mol
269.16 K, Crystal 2	252.76 J/K/mol
271.09 K, Crystal 2	258.66 J/K/mol
273 K, Crystal 2	272.05 J/K/mol
274.91 K, Crystal 2	282.28 J/K/mol
276.81 K, Crystal 2	299.57 J/K/mol
278.68 K, Crystal 2	329.42 J/K/mol
280.53 K, Crystal 2	365.67 J/K/mol
282.42 K, Crystal 2	373.74 J/K/mol
288.85 K, Crystal 1, Small (less than 1 g) adiabatic calorimetry	291.09 J/K/mol
293.37 K, Crystal 1, Small (less than 1 g) adiabatic calorimetry	265.9 J/K/mol
295.36 K, Crystal 1, Small (less than 1 g) adiabatic calorimetry	265.81 J/K/mol
297.3 K, Crystal 1, Small (less than 1 g) adiabatic calorimetry	265.98 J/K/mol
299.23 K, Crystal 1, Small (less than 1 g) adiabatic calorimetry	266.56 J/K/mol
301.17 K, Crystal 1, Small (less than 1 g) adiabatic calorimetry	266.89 J/K/mol
303.1 K, Crystal 1, Small (less than 1 g) adiabatic calorimetry	267.48 J/K/mol
305.04 K, Crystal 1, Small (less than 1 g) adiabatic calorimetry	267.89 J/K/mol
306.98 K, Crystal 1, Small (less than 1 g) adiabatic calorimetry	268.56 J/K/mol
308.92 K, Crystal 1, Small (less than 1 g) adiabatic calorimetry	268.89 J/K/mol
309.23 K, Crystal 1, Small (less than 1 g) adiabatic calorimetry	268.97 J/K/mol
310.85 K, Crystal 1, Small (less than 1 g) adiabatic calorimetry	268.89 J/K/mol
311.41 K, Crystal 1, Small (less than 1 g) adiabatic calorimetry	269.47 J/K/mol
312.79 K, Crystal 1, Small (less than 1 g) adiabatic calorimetry	269.39 J/K/mol
313.59 K, Crystal 1, Small (less than 1 g) adiabatic calorimetry	269.97 J/K/mol
314.73 K, Crystal 1, Small (less than 1 g) adiabatic calorimetry	269.97 J/K/mol
315.77 K, Crystal 1, Small (less than 1 g) adiabatic calorimetry	270.14 J/K/mol
316.67 K, Crystal 1, Small (less than 1 g) adiabatic calorimetry	270.05 J/K/mol
317.96 K, Crystal 1, Small (less than 1 g) adiabatic calorimetry	270.55 J/K/mol
318.61 K, Crystal 1, Small (less than 1 g) adiabatic calorimetry	270.8 J/K/mol
320.14 K, Crystal 1, Small (less than 1 g) adiabatic calorimetry	270.97 J/K/mol
320.55 K, Crystal 1, Small (less than 1 g) adiabatic calorimetry	271.05 J/K/mol
322.32 K, Crystal 1, Small (less than 1 g) adiabatic calorimetry	271.47 J/K/mol
324.44 K, Crystal 1, Small (less than 1 g) adiabatic calorimetry	271.8 J/K/mol
324.5 K, Crystal 1, Small (less than 1 g) adiabatic calorimetry	272.13 J/K/mol
326.39 K, Crystal 1, Small (less than 1 g) adiabatic calorimetry	272.55 J/K/mol
326.7 K, Crystal 1, Small (less than 1 g) adiabatic calorimetry	272.05 J/K/mol
328.33 K, Crystal 1, Small (less than 1 g) adiabatic calorimetry	272.71 J/K/mol
328.88 K, Crystal 1, Small (less than 1 g) adiabatic calorimetry	272.88 J/K/mol
330.27 K, Crystal 1, Small (less than 1 g) adiabatic calorimetry	273.05 J/K/mol
331.06 K, Crystal 1, Small (less than 1 g) adiabatic calorimetry	273.71 J/K/mol
332.22 K, Crystal 1, Small (less than 1 g) adiabatic calorimetry	273.55 J/K/mol
333.25 K, Crystal 1, Small (less than 1 g) adiabatic calorimetry	273.88 J/K/mol
334.16 K, Crystal 1, Small (less than 1 g) adiabatic calorimetry	273.8 J/K/mol
335.43 K, Crystal 1, Small (less than 1 g) adiabatic calorimetry	274.38 J/K/mol
336.11 K, Crystal 1, Small (less than 1 g) adiabatic calorimetry	274.21 J/K/mol
337.62 K, Crystal 1, Small (less than 1 g) adiabatic calorimetry	274.79 J/K/mol
338.05 K, Crystal 1, Small (less than 1 g) adiabatic calorimetry	274.88 J/K/mol
339.81 K, Crystal 1, Small (less than 1 g) adiabatic calorimetry	275.29 J/K/mol
340 K, Crystal 1, Small (less than 1 g) adiabatic calorimetry	275.21 J/K/mol
341.94 K, Crystal 1, Small (less than 1 g) adiabatic calorimetry	275.79 J/K/mol
342 K, Crystal 1, Small (less than 1 g) adiabatic calorimetry	275.96 J/K/mol
343.89 K, Crystal 1, Small (less than 1 g) adiabatic calorimetry	276.54 J/K/mol
344.18 K, Crystal 1, Small (less than 1 g) adiabatic calorimetry	276.79 J/K/mol
345.84 K, Crystal 1, Small (less than 1 g) adiabatic calorimetry	277.2 J/K/mol
346.37 K, Crystal 1, Small (less than 1 g) adiabatic calorimetry	277.45 J/K/mol
347.78 K, Crystal 1, Small (less than 1 g) adiabatic calorimetry	277.79 J/K/mol
348.56 K, Crystal 1, Small (less than 1 g) adiabatic calorimetry	278.2 J/K/mol
349.73 K, Crystal 1, Small (less than 1 g) adiabatic calorimetry	278.37 J/K/mol
350.75 K, Crystal 1, Small (less than 1 g) adiabatic calorimetry	279.03 J/K/mol
351.68 K, Crystal 1, Small (less than 1 g) adiabatic calorimetry	278.87 J/K/mol
352.94 K, Crystal 1, Small (less than 1 g) adiabatic calorimetry	279.78 J/K/mol
353.63 K, Crystal 1, Small (less than 1 g) adiabatic calorimetry	279.37 J/K/mol
355.12 K, Crystal 1, Small (less than 1 g) adiabatic calorimetry	280.28 J/K/mol
355.58 K, Crystal 1, Small (less than 1 g) adiabatic calorimetry	280.45 J/K/mol
357.31 K, Crystal 1, Small (less than 1 g) adiabatic calorimetry	281.03 J/K/mol
357.53 K, Crystal 1, Small (less than 1 g) adiabatic calorimetry	281.03 J/K/mol
359.47 K, Crystal 1, Small (less than 1 g) adiabatic calorimetry	281.86 J/K/mol
359.5 K, Crystal 1, Small (less than 1 g) adiabatic calorimetry	282.03 J/K/mol
361.42 K, Crystal 1, Small (less than 1 g) adiabatic calorimetry	282.61 J/K/mol
361.71 K, Crystal 1, Small (less than 1 g) adiabatic calorimetry	282.53 J/K/mol
363.37 K, Crystal 1, Small (less than 1 g) adiabatic calorimetry	283.36 J/K/mol
363.9 K, Crystal 1, Small (less than 1 g) adiabatic calorimetry	283.52 J/K/mol
365.32 K, Crystal 1, Small (less than 1 g) adiabatic calorimetry	284.52 J/K/mol
366.08 K, Crystal 1, Small (less than 1 g) adiabatic calorimetry	284.69 J/K/mol
367.27 K, Crystal 1, Small (less than 1 g) adiabatic calorimetry	285.52 J/K/mol
